The text below walks through data of PubChem BioAssay (NCI).

Values joined by “and” are separate entries in the source; they are usually repeats but may differ in a detail not shown here. Equal entries are not always repeated.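 These data come from cells grown in 96-well plates and exposed to compound for 48 hours at five concentrations. GI50 = concentration required for 50% inhibition of growth. TGI: total growth inhibition.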

Holding throughout (assay): NCI anticancer screen, dose series, 48 h
The test system of experiment [1] is HS 578T breast.
Experiment [2] deals with PC-3 prostate.
Experiment [3] has as its system MDA-MB-435.
Experiment [4] deals with BT-549 breast.
The test system of experiment [5] is DU-145 prostate.

Take `O=CN1N=C(c2ccc(Cl)cc2)CC1c1cccc(Nc2ccnc3cc(Cl)ccc23)c1` (stereo unspecified): the GI50 is 3.23 µM in experiment [1]; 1.69 µM in experiment [2]; 0.377 µM in experiment [3]; 1.78 µM in experiment [4]; 2.8 µM in experiment [5]. Besides, the TGI is > 100 µM in experiment [1]; > 100 µM in experiment [2]; 17.2 µM in experiment [3]; 15.4 µM in experiment [4]; > 100 µM in experiment [5].

Take `Cc1ccc(-c2nc(N)nc3c2nnn3Cc2cccc(CO[C@H]3CCOC3)n2)o1`: the GI50 is > 100 µM in experiment [1]; > 100 µM in experiment [2]; > 100 µM in experiment [3]; 82 µM in experiment [4]; > 100 µM in experiment [5]. For the same molecule, the TGI in experiment [1], in experiment [2], in experiment [3], in experiment [4] and in experiment [5] was > 100 µM each time.

On to `COc1cc(C(c2cc3c(cc2O)OCO3)N2CCCCC2)cc(OC)c1OC` (stereo unspecified), for which the TGI in experiment [1] is 43.5 µM; in experiment [2], 30.6 µM; in experiment [3] it was 16.8 µM; in experiment [4] it was 24.4 µM; in experiment [5] it was 35.6 µM.

For the molecule `CCN=c1cc2sc3cc(NCC)c(C)cc3nc-2cc1C`, the GI50 in experiment [1] is 2.14 µM; in experiment [2], 0.133 µM; in experiment [3] it was 1.55 µM; in experiment [4], 2.87 µM; in experiment [5], 1.97 µM. The TGI turned out to be 15.2 µM in experiment [1]; 4.72 µM in experiment [2]; 4.33 µM in experiment [3]; 19.9 µM in experiment [4]; 4.16 µM in experiment [5].

For `CC[Si](CC)(CC)OC[C@]1([C@@H]2COC(C)(C)O2)CC=CC(=O)O1`, the GI50 in experiment [1] was 34.6 µM; in experiment [2], 41.5 µM; in experiment [3] it was 36.4 µM; in experiment [4], 20.2 µM; in experiment [5], 82.9 µM. The TGI in experiment [1] is > 100 µM; in experiment [2], > 100 µM; in experiment [3], > 100 µM; in experiment [4], 71.2 µM; in experiment [5], > 100 µM.

On to `O=P([O-])(O)OP(=O)([O-])O.[NH-][C@@H]1CCCC[C@H]1[NH-].[Pt+4]`, for which the GI50 in experiment [1] is > 100 µM and 56.5 µM; in experiment [2] it was > 100 µM and 20.3 µM; in experiment [3] it was 11.8 µM and 4.04 µM; in experiment [4] it was > 100 µM and 30.5 µM; in experiment [5], 25.9 µM and 12.2 µM. Moreover, the TGI in experiment [1] is > 100 µM; in experiment [2], > 100 µM; in experiment [3], > 100 µM and 27.4 µM; in experiment [4], > 100 µM; in experiment [5], > 100 µM.

Consider `NC(=N\N=C/c1cccc([N+](=O)[O-])c1)/C(N)=N\N=C/c1cccc([N+](=O)[O-])c1`, for which the GI50 in experiment [1], in experiment [2], in experiment [3] and in experiment [5] was > 100 µM throughout. For the same molecule, the TGI in experiment [1], in experiment [2], in experiment [3] and in experiment [5] was > 100 µM throughout.

For `Cc1occc1C(=S)Nc1ccc(Cl)c(/C=N/OC(C)C)c1`, the TGI in experiment [1] was 67.9 µM; in experiment [2], 47.3 µM; in experiment [3], 31 µM; in experiment [4], 36.5 µM; in experiment [5] it was > 54.2 µM.

For the molecule `O=C(Nc1ccc(F)cc1F)c1cc(Br)ccc1O`, the GI50 in experiment [1] was 2.24 µM; in experiment [2], 2.45 µM; in experiment [3], 2.82 µM; in experiment [4], 1.99 µM; in experiment [5], 3.85 µM. For the same molecule, the TGI in experiment [1] is 8.35 µM; in experiment [2], 8.35 µM; in experiment [3] it was 11.9 µM; in experiment [4] it was 5.51 µM; in experiment [5] it was > 100 µM.

Take `O=C(CC12CC3CC(CC(C3)C1)C2)NCCOCCOCCOCCNC(=O)c1cc2c(o1)C(=O)c1ccccc1C2=O`: the GI50 in experiment [1] was 1.99 µM; in experiment [2], 1.79 µM; in experiment [3] it was 0.2 µM; in experiment [4], 1.33 µM; in experiment [5], 0.407 µM. The TGI in experiment [1] is 6.59 µM; in experiment [2], 16.1 µM; in experiment [3], 0.392 µM; in experiment [4] it was 2.68 µM; in experiment [5], 1.28 µM.

For `O=C(N/N=C/c1ccccc1Cl)c1ccccc1Nc1ccnc(C(F)(F)F)c1`, the GI50 in experiment [1] is 1.82 µM; in experiment [2] it was 1.83 µM; in experiment [3], 1.71 µM; in experiment [4] it was 1.77 µM; in experiment [5] it was 2.5 µM. For the same molecule, the TGI in experiment [1] was 7.23 µM; in experiment [2], 9.6 µM; in experiment [3], 6.81 µM; in experiment [4], 7.13 µM; in experiment [5] it was > 26.5 µM.

On to `COc1cc2cc(C(=O)Nc3cc(N)c4ccccc4c3CCCl)[nH]c2c(OC)c1OC`, for which the GI50 in experiment [1] was 0.0899 µM; in experiment [2], 0.0252 µM; in experiment [3], 0.0483 µM; in experiment [4] it was 0.121 µM; in experiment [5] it was 0.00895 µM. Also, the TGI in experiment [1] was > 50 µM; in experiment [2], 1.59 µM; in experiment [3], 0.159 µM; in experiment [4] it was 0.804 µM; in experiment [5], 0.339 µM.

Consider `O=C1NC(=S)NC(=O)C1=Cc1cccc2cc3ccccc3cc12`, for which the TGI was > 25.6 µM in experiment [1]; 3.3 µM in experiment [2]; 4.65 µM in experiment [3]; 3.33 µM in experiment [4]; 3.63 µM in experiment [5].

In the case of `C[C@@H]1N=C(c2ccc(Br)cc2)Nc2nc3ccccn3c2C1=O`, the GI50 in experiment [1] is 2.81 µM; in experiment [2], 5.7 µM; in experiment [3], 1.33 µM; in experiment [4], 5.49 µM; in experiment [5], 23.2 µM. The TGI in experiment [1] is 52 µM; in experiment [2] it was > 100 µM; in experiment [3] it was 7.1 µM; in experiment [4] it was > 100 µM; in experiment [5] it was > 100 µM.

Turning to `c1ccc2c(c1)-c1ccccc1C2N1CC2CCC(CC2)C1`, the TGI was determined as 33.2 µM in experiment [1]; 72.1 µM in experiment [2]; 73.4 µM in experiment [3]; 47.9 µM in experiment [4]; 92 µM in experiment [5].

`C=CCN1C=CC(=O)[C@H](O[Si](C)(C)C(C)(C)C)[C@@H]1/C=C/c1ccccc1`: the GI50 in experiment [1] was 14.1 µM; in experiment [3], 12.3 µM; in experiment [4] it was 16 µM; in experiment [5] it was 15.7 µM. For the same molecule, the TGI worked out at 34.3 µM in experiment [1], 30.6 µM in experiment [3], 35 µM in experiment [4] and 30.1 µM in experiment [5].
